This passage reports IC50 results from patent US20170280720A1, “ARGININE […] INHIBITORS AND USES THEREOF” (EPIZYME, INC., priority 2014, published 2017).

Where a name gives a salt, the structure may show the parent alone.

The test addresses T1, Human CARM1 (PRMT4) (Homo sapiens, UniProt Q86X55).
T1 construct: Flag-CARM1-His; made in house; host or cells: HEK 293F cells (BacMam baculovirus, pFastBacMam)
T1 sequence (Q86X55 2-585 isoform Q86X55-1): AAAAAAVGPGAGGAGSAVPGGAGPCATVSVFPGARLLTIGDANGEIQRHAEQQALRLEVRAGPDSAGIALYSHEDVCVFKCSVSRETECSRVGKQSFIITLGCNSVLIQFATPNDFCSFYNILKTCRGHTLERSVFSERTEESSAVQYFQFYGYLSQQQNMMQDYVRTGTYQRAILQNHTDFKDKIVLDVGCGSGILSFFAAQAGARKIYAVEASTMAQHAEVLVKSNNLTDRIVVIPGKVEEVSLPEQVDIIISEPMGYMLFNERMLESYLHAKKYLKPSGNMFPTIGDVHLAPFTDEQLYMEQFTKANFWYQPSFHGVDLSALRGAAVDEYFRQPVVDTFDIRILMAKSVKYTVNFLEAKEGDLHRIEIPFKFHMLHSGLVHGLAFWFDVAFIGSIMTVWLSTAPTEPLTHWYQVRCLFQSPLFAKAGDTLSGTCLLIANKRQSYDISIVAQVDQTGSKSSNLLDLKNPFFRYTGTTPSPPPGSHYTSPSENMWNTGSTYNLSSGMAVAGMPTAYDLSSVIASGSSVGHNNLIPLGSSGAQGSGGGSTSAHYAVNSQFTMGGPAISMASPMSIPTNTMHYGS
Put plainly: CARM1 biochemical assay (3H-SAM Flashplate, peptide substrate). The conditions noted are these: read-out: CARM1_ IC50. A digest of the protocol: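 FLAG/His-tagged human CARM1 (isoform 1, Δ539-561, baculovirus-expressed), 0.25 nM, preincubated 30 min at room temperature with compound (2% DMSO) in 20 mM Bicine pH 7.6, then reacted with 30 nM 3H-SAM and 250 nM biotinylated H3 16-30 peptide (R26 monomethyl). Stopped with 300 uM cold SAM; labelled peptide captured on streptavidin Flashplate; % inhibition versus DMSO and 1 mM SAH controls fitted to a 4- or 3-parameter curve.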
For orientation: IC50 means the midpoint of a concentration-inhibition curve. As to `CNCCN(C)Cc1cccc(-c2cc(N(C)C3CC3)c3cnn(C(C)C)c3n2)c1` [Compound 95], the IC50 worked out at 36.5 nM. To `CNCCN(C)Cc1cccc(-c2cc(N3CCC(C(F)(F)F)CC3)c3cnn(C(C)C)c3n2)c1` [Compound 50] belongs 27.6 nM. To `CNCCN(C)Cc1cccc(-c2cc(C(=O)NC3CCOCC3)c3cnn(C4CC4)c3n2)c1` [Compound 87] belongs 36.8 nM; to `Cc1c(C(=O)NCc2ccccc2)cc(-c2ccc(CN(C)CCN)cc2)c2cn[nH]c12` [Compound 7], 6830 nM. The result for `CNCCN(C)Cc1cccc(-c2cc(C(=O)NCC3CCOCC3)c3cnn(C(C)C)c3n2)c1` [Compound 105] reads 18.1 nM; that for `CNCCN(C)Cc1cccc(-c2cc(N3CCOCC3)n3ncc(C(C)C)c3n2)c1` [Compound 62, N1-(3-(3-isopropyl-7-morpholinopyrazolo[1,5-a]pyrimidin-5-yl)benzyl)-N1,N2-dimethylethane-1,2-diamine formate], 20.8 nM; that for `CCOc1cc(-c2cccc(CN(C)CCNC)c2)nc2c1cnn2C(C)C` [Compound 53], 19.9 nM. On to `CCS(=O)(=O)Nc1cc(-c2cccc(CN(C)CCN)c2)nc2c1cnn2C(C)C` [Compound 111], for which the concentration for half-maximal inhibition (IC50) came to 131 nM. Regarding `CC(C)n1ncc2c(NC(=O)OCc3ccccc3)cc(-c3cccc(CN(C)CCN)c3)nc21` [Compound 84], the IC50 is 13.7 nM. To `CC(C)n1ncc2c(N3CCOCC3)cc(-c3cccc(CN(C)CCN)c3)nc21` [Compound 61, N1-(3-(1-isopropyl-4-morpholino-1H-pyrazolo[3,4-b]pyridin-6-yl)benzyl)-N1-methylethane-1,2-diamine] belongs 5.22 nM. To `CNCCN(C)Cc1cccc(-c2cc(NC)c3cnn(C(C)C)c3n2)c1` [Compound 121] belongs 70.2 nM; to `CNCCN(C)Cc1cccc(-c2cc(-c3ccoc3)c3cnn(C(C)C)c3n2)c1` [Compound 67], 28.1 nM. The result for `CNCCN(C)Cc1cccc(-c2cc(N3CCC(OC)CC3)c3cnn(C(C)C)c3n2)c1` [Compound 51] reads 16.7 nM. On to `CN(CCN)Cc1cccc(-c2nc(NCc3ccncc3)c3cnn(C4CC4)c3n2)c1` [Compound 66], for which the half-maximal inhibitory concentration (IC50) turned out to be 6.32 nM. To `COc1ccccc1-c1nc2ccc(-c3ccc(CNCCN)cc3)cc2[nH]1` [Compound 115] belongs 6870 nM; to `CNCCN(C)Cc1cccc(-c2cc(OC3CCOC3)c3cnn(C(C)C)c3n2)c1` (stereo not drawn) [Compound 102], 22.4 nM.

With `CNCCN(C)Cc1cccc(-c2cc(C(=O)NCCCCCC(=O)NCc3ccn(C)n3)c3cnn(C(C)C)c3n2)c1` [Compound 117], the concentration for half-maximal inhibition (IC50) was 33.4 nM. To `CC(C)n1ncc2c(C(=O)NCc3ccccc3Cl)cc(-c3cccc(CN(C)CCN)c3)nc21` [Compound 54] belongs 26.1 nM.
